Consider five molecules from patent US7057059B2, “Tumor-inhibiting platinum (II) oxalate complexes” (Faustus Forschungs CIE. Translational Cancer Research GmbH, priority 2002, dated 2006).

In data set [1] the test system is CH1 (adenocarcinoma of the ovary). The class given is cell-based. The following applies: cell line CH1, MTT, 96 h. As for the experimental part:
(§1) The cytotoxicity of the compounds according to Examples 1 and 2 was tested by using the following cell lines 41M, CH1 and SW480. In this respect the following method was selected:
(§2) In this regard, adherent monolayer cultures of the following cell lines were used: 41M (adenocarcinoma of the ovary), CH1 (adenocarcinoma of the ovary), SW480 (adenocarcinoma of the colon; primary resistance to cisplatinum).
(§3) Culture conditions: The cells were kept in 75 cm^2 culture flasks at 37° C. and moist atmosphere (5% CO2). Minimal Essential Medium (MEM) was used as culture medium, with 2 mmol/l I-glutamine, 1 mmol/l sodium pyruvate, 50 IU/ml penicillin, 50 μg/ml streptomycin and 10% heat-inactivated foetal bovine serum.
(§4) Test execution: Cell suspensions were obtained from subconfluent cultures by treatment with trypsin and seeded in defined density in 96-well microculture plates. The initial density was selected such that for the complete test duration an exponential growth of the cultures was guaranteed. For the cell line 41M this was 4·10^4 cells/ml, for CH1 1.25·10^4 cells/ml and for SW480 1.5·10^4 cells/ml. The plates were incubated for 24 h under standard conditions to achieve cell establishment. Then the compounds to be tested were introduced in ten-staged concentration series in the culture medium (without addition of organic solvents or dissolving agents) into the plates and left for the complete test duration (96 h). Per experiment each concentration was tested on eight microcultures of the same cell line. At the end of the experiment the respective number of living cells in the microculture was determined spectrophotometrically (at 550 nm) using the MTT-dye reaction in relationship to the untreated control cultures. Equally, the number of living cells in microculture plates started in parallel was quantified at the start of the active substance exposition. […] The mean values were used for the evaluation.

The test system of data set [2] is 41M (adenocarcinoma of the ovary). The class given is cell-based. The following applies: cell line 41M, MTT, 96 h. As for the experimental part:
as §1, §2, §3, §4

Data set [3] concerns SW480 (adenocarcinoma of the colon; primary resistance to cisplatinum). Format: cell-based. The following applies: cell line SW480, MTT, 96 h. As for the experimental part:
as §1, §2, §3, §4

The next data set deals with leukaemia L1210. Description: L1210 leukaemia in the mouse. The following applies: for effectiveness (survival to the end of the experiment): 3 mg/kg and 6 mg/kg, 21 day study. The class given is in vivo. The source says:
FIG. 4 is a bar graph of the results of the effectiveness of (4-methyl-trans-chxn)Pt(ox) in comparison to I-OHP in leukaemia L1210 in the mouse at various dosages over a 21 day study.

Another data set has as its system animals free of tumors. Description: MTD study on animals free of tumors. Particulars: on day 5, at MTD 10 mg/kg Qd×5.
Data set [4] relates to Female, tumor-bearing B6D2F1 mouse. Description: In vivo efficacy study: survivors on day 14 after tumor transplantation. Particulars: for Survivors/total number: Qd×5, day 14 after tumor transplantation; for animals still alive on day 14: highest dosage level. An excerpt:
Female, tumor-bearing B6D2F1 mouse, day 14 after tumor transplantation.

Data set [5] can be described thus: MTD study on animals free of tumors. The following applies: in vivo.

As for “(SP-4-3)-(4-methyl-trans-cyclohexane-1,2-diamine)oxalatoplatinum (II) [[(4-methyl-trans-chxn)Pt(ox)]]”, the Gl50 in data set [1] was 0.22 µM; in data set [3] it was 0.31 µM. Moreover, the IC50 in data set [1] was 340 nM; in data set [2], 2400 nM; in data set [3] it was 650 nM. The results for the total growth inhibition concentration (TGI) in data set [1], in data set [2] and in data set [3] were 930 nM, 4200 ± 2600 nM and 9000 nM, respectively. The GL50 in data set [2] stood at 0.91 ± 0.16 µM. Further, the “effectiveness (survival to the end of the experiment)” value in the data set on leukaemia L1210 was “all animals survived the experiment to the end”. In the data set on leukaemia L1210 (24 mg/kg, in comparison to I-OHP), the “tolerance at high dosage” value is given as “better tolerance”. This molecule also came in with a weight loss in the data set with animals free of tumors of 5%. The Survivors/total number in data set [4] (dose 1.30 mg/kg) is 6/6; in data set [4] (dose 2.60 mg/kg) it was 5/6; in data set [4] (dose 5.20 mg/kg) it was 4/6. In data set [4], the “animals still alive on day 14” value is recorded as 4/6.
`O=C(O)C(=O)O.[NH-][C@@H]1CCCC[C@H]1[NH-].[Pt+2]` [[(trans-chxn)Pt(ox)]]: in data set [1], the Gl50 came out at 0.54 µM, the IC50 is 700 nM and the TGI stood at 2000 nM. In data set [2], this molecule had a GL50 of 0.99 µM, an IC50 of 4200 nM and a TGI of 5000 nM. For the same molecule, in data set [3], the Gl50 stood at 0.8 µM, half-maximal inhibition (IC50) required 1600 nM and the total growth inhibition concentration (TGI) was determined as 21800 nM.
As to `O=C(O)C(=O)O.[NH-]C1CCCCC1[NH-].[Pt+2]` (stereo not drawn) [[(trans-S,S-chxn)Pt(ox)]], in data set [1], the Gl50 was determined as 1.14 µM, the half-inhibitory concentration (IC50) worked out at 1500 nM and the concentration for total growth inhibition (TGI) stood at 4200 nM. In data set [2], this molecule yielded a GL50 of 1.11 µM, an IC50 of 3200 nM and a total growth inhibition concentration (TGI) of 4400 nM. In addition, in data set [3], the Gl50 came out at 2.2 µM, 4200 nM corresponded to half-maximal inhibition (IC50) and the total growth inhibition concentration (TGI) is 47800 nM.
In the case of `O=C1[O][Pt]2([NH]C3CCCC[C@H]3[NH]2)[O]C1=O` (stereo partly shown) [Oxaliplatinum, oxaliplatinum], the “effectiveness (survival to the end of the experiment)” value in the data set on leukaemia L1210 is “deaths already occurred”. Also, the MTD at 5 days in data set [5] worked out at 5 mg/kg. For the same molecule, the Survivors/total number in data set [4] (dose 1.25 mg/kg) is given as 5/6; in data set [4] (dose 2.50 mg/kg), 6/6; in data set [4] (dose 5.00 mg/kg) it was 0/6. Further, the “animals still alive on day 14” value in data set [4] is “death of all animals”.
Molecule `CCC1CCC2[NH][Pt]3([NH]C2C1)[O]C(=O)C(=O)[O]3` (stereo not drawn) [[(4-ethyl-trans-chxn)Pt(ox)], (SP-4-3)-(4-ethyl-trans-cyclohexane-1,2-diamine)oxalatoplatinum (II)] yielded a weight loss with animals free of tumors of 5%. In addition, the MTD at 5 days in data set [5] came out at 10 mg/kg. In addition, the Survivors/total number in data set [4] (dose 1.34 mg/kg) is 5/6; in data set [4] (dose 2.68 mg/kg), 6/6; in data set [4] (dose 5.35 mg/kg), 6/6. In data set [4], the “animals still alive on day 14” value was 6/6.
